Where two headings read alike, the source gives them in different places.
Tests used:
various cancers = assay: Human tumor responses, Q4D schedule; type: in vivo, human patients
Experimental: From the results obtained from the in vitro and the animal studies, responses of various human subjects to the Q4d×3 (21 days×3) protocol at dosages levels of about 60 mg/m^2 were evaluated. It should be understood that these patients were deemed "salvage" cases almost all of whom had not responded to conventional treatment. All were otherwise thought to be beyond approved therapeutic regimens. Thus, the results and evaluation are anecdotal in nature and are not part of a controlled and statistical valid clinical trial.
(§1) Characteristics of the group of twenty were: male (5); female (15); median age 44 (17-81); ECOG-PS 1 (0-3). All were previously treated with chemotherapy and radiation for cancers of the breast (5), ovarian (2), brain (3), prostate (1), head and neck (4), bone (2), leiomyosarcoma (2), and melanoma (1).

[1] = tested on: SK-N-AS neuroblastoma cells; assay: MTT cytotoxicity, SK-N-AS; conditions: for cytotoxicity at 0.01 µg/mL / cytotoxicity at 0.1 µg/mL / cytotoxicity at 1 µg/mL: Homo sapiens, 120 h
Excerpt: (§2) Cell lines tested included: Glioblastoma cell lines VA-MG-SL and U-373-MG, neuroblastoma cell lines SK-N-AS, SK-N-FI and VA-N-BR, and two primitive neuroectodermal tumor cell lines SK-N-LO and SK-PN-DW at different concentrations. All cell lines were personally established from patients and cultured except U-373-MG (obtained from the American Type Culture Collection, Rockville, […]., USA). The cell lines SK-N-AS, SK-N-FI, SK-N-LO and SK-PN-DW have been reported in several publications and are believed to be representative of their respective lineages.
(§3) Stock cells in 25 cm^2 flasks were incubated in Dubelco's modified Eagle's medium (Sigma, St. Louis, Mo.) containing 10% fetal bovine serum at 37° C. and 5% CO2 in air for 5 days. Media was renewed on the sixth day and on the seventh day the cells were detached into a single cell suspension with trypsin EDTA, counted and aliquots plated at 3000 to 5000 cells in 0.1 ml fresh media in separate wells of a 96-well microliter plate (Becton-Dickinson Labware, Lincoln Park, N.J.). […] Six replicate wells were used in every experiment as controls and for each test concentration. Each experiment was repeated three separate times. Viability of the cell lines 5 days after exposure to drugs was determined by the MTT assay following published procedures.
(§4) Cytocidal activity was defined when the number of cells or the MTT surrogate optical density value was less than the initial inoculum. This is usually the case when ≥80% toxicity is recorded under these in vitro conditions.
(§5) Differences were considered to be statistically significant for a p-value of 0.05 or less.

[2] = Study B: taxol tissue levels after three IP injections at 4 day intervals; type: in vivo, nude mice; conditions: seven days after third injection
clinical = assay: clinical; set-up: species or system human patients; conditions: human, in vivo, iv
Excerpt: as §1

[3] = tested on: ovarian and breast cancers; conditions: background statement; cited from earlier work
SK-N-AS cells [4] = assay: Effects of spacing exposure to taxol on toxicity in SK-N-AS cells
Experimental: as §3

[5] = tested on: SK-N-LO primitive neuroectodermal tumor cells; assay: MTT cytotoxicity, SK-N-LO; conditions: for cytotoxicity at 0.01 µg/mL / cytotoxicity at 0.1 µg/mL / cytotoxicity at 1 µg/mL: Homo sapiens, 120 h
Excerpt: as §2, §3, §4, §5

[6] = tested on: SK-N-FI neuroblastoma cells; assay: cells; conditions: for cytotoxicity at 0.1 µg/mL / cytotoxicity at 1 µg/mL: 120 h
Excerpt: as §2, §3, §4, §5

[7] = tested on: VA-N-BR neuroblastoma cells; assay: cells; conditions: Neuroblastoma cell; for cytotoxicity at 0.1 µg/mL / cytotoxicity at 1 µg/mL: Homo sapiens, 120 h
Excerpt: as §2, §3, §4, §5

[8] = tested on: VA-MG-SL glioblastoma cells; assay: cells; conditions: for cytotoxicity at 0.1 µg/mL / cytotoxicity at 1 µg/mL: Homo sapiens, 120 h
Excerpt: as §2, §3, §4, §5

[9] = tested on: U-373-MG glioblastoma cells; assay: cells; conditions: Homo sapiens, U373 MG; for cytotoxicity at 0.1 µg/mL / cytotoxicity at 1 µg/mL: 120 h
Excerpt: as §2, §3, §4, §5

SK-N-AS cells [10] = assay: Cytopathologic changes after taxol exposure; type: cell-based, human; conditions: 1 μg/ml for 1 hour
Excerpt: Apoptosis was recognized as acute change in the cells. These included chromatin clumping at the periphery of the nucleus, loss of cytoplasmic detail and finally apoptotic bodies, either readily detached or floating with several being phagocytosed by surrounding cells.

[11] = Homo sapiens, SK-N-AS, 120 h, read-out: Survival (%)
[12] = read-out: concentration at which cell line was affected

In the case of `CC(=O)O[C@H]1C(=O)[C@@]2(C)[C@H]([C@H](OC(=O)c3ccccc3)[C@]3(O)C[C@H](OC(=O)[C@H](O)[C@@H](NC(=O)c4ccccc4)c4ccccc4)C(C)=C1C3(C)C)[C@]1(OC(C)=O)CO[C@@H]1C[C@@H]2O` [taxol], the “antitumor activity in words” value (various cancers; Q4D schedule, advanced disease patients with varied histologies) is reported as “has antitumor activity in advanced disease patients with varied histologies”, the “effectiveness vs Q21 day schedule” value (various cancers; Q4D, previously untreated patients or in combination/sequence, interpretation) is reported as “equal to, or more effective than, the Q21 day schedule” and the partial response (various cancers; all) is reported as “four”. For the same compound, the partial response (various cancers; brain) was 1 instances, the complete response (various cancers; brain tumor) was “one” and the partial response (various cancers; breast) was 2 instances. The partial response (various cancers; head and neck) was 1 instances, the effectiveness in words (various cancers; salvage patients, limited tests) was “demonstrated effectiveness” and the “cytotoxicity compared with a 1 hour exposure” value ([1]; 0.01 μg/ml, 24 hour) was “enhanced cytotoxicity”. For the same compound, the toxicity in words ([1]; 0.01 μg/ml, ≥1 hour exposure) was “toxic”, the “resilience of cell line to taxol” value ([1]; 0.01-1.0 μg/ml) was “least resilient of the cell lines” and the cytotoxicity at 0.01 µg/mL ([1]; read-out: Taxol toxicity, SK-N-AS, 0.01 μg/ml x 1 h, 5 days after exposure) was 15%. It also gave a cytotoxicity at 0.01 µg/mL ([1]; read-out: Taxol toxicity, SK-N-AS, 0.01 μg/ml x 4 h, 5 days after exposure) of 25%, a cytotoxicity at 0.01 µg/mL ([1]; read-out: Taxol toxicity, SK-N-AS, 0.01 μg/ml x 24 h, 5 days after exposure, p < 0.05 vs 1 h) of 50% and a cytotoxicity at 0.1 µg/mL ([1]; read-out: Taxol toxicity, SK-N-AS, 0.1 μg/ml x 1 h, 5 days after exposure) of 65%. It also gave a cytotoxicity at 0.1 µg/mL ([1]; read-out: Taxol toxicity, SK-N-AS, 0.1 μg/ml x 4 h, 5 days after exposure) of 67%, a cytotoxicity at 0.1 µg/mL ([1]; read-out: Taxol toxicity, SK-N-AS, 0.1 μg/ml x 24 h, 5 days after exposure, p < 0.05 vs 1 h) of 81% and a cytotoxicity at 1 µg/mL ([1]; read-out: Taxol toxicity, SK-N-AS, 1.0 μg/ml x 1 h, 5 days after exposure) of 87%. For the same compound, the cytotoxicity at 1 µg/mL ([1]; read-out: Taxol toxicity, SK-N-AS, 1.0 μg/ml x 4 h, 5 days after exposure) was 82%, the cytotoxicity at 1 µg/mL ([1]; read-out: Taxol toxicity, SK-N-AS, 1.0 μg/ml x 24 h, 5 days after exposure) was 89% and the “taxol in the colon” value [2] was “Substantial amounts”. For the same compound, the “taxol in tumor and organs” value [2] was “detectable in tumor and organs”, the Kp (clinical) was 0.01 and the “peripheral blood CMAX” value (clinical) was 1400 ng/mL. For the same compound, the Cmax (clinical; 0-40 ng/ml CMAX (so in the source)) was under 40 ng/mL, the half-life (clinical; T1/2 α) was 15 min and the half-life (clinical; distributive phase T1/2 α) was 7 to 20 min. The Cmax (clinical; peripheral blood CMAX) was 1240 ng/mL, the “antitumor activity in words” value [3] was “among the most active single agent for ovarian and breast cancers” and the viability at 0.3 µg/mL (SK-N-AS cells [4]; [11]) was 61%. The viability at 0.6 µg/mL (SK-N-AS cells [4]; [11]) was 24%, the “cytotoxic effects of single vs split exposure” value (SK-N-AS cells [4]; single exposure 0.6 μg/ml/h) was “greater than when taxol was scheduled as 0.3 μg/ml given once and once again after 30 minutes” and the cytotoxicity at 0.01 µg/mL ([5]; read-out: Taxol toxicity, SK-N-LO, 0.01 μg/ml x 1 h, 5 days after exposure) was 0%. For the same compound, the cytotoxicity at 0.01 µg/mL ([5]; read-out: Taxol toxicity, SK-N-LO, 0.01 μg/ml x 4 h, 5 days after exposure) was 0%, the cytotoxicity at 0.01 µg/mL ([5]; read-out: Taxol toxicity, SK-N-LO, 0.01 μg/ml x 24 h, 5 days after exposure, p < 0.05 vs 1 h) was 17% and the cytotoxicity at 0.1 µg/mL ([5]; read-out: Taxol toxicity, SK-N-LO, 0.1 μg/ml x 1 h, 5 days after exposure) was 43%. For the same compound, the cytotoxicity at 0.1 µg/mL ([5]; read-out: Taxol toxicity, SK-N-LO, 0.1 μg/ml x 4 h, 5 days after exposure) was 56%, the cytotoxicity at 0.1 µg/mL ([5]; read-out: Taxol toxicity, SK-N-LO, 0.1 μg/ml x 24 h, 5 days after exposure) was 47% and the cytotoxicity at 1 µg/mL ([5]; read-out: Taxol toxicity, SK-N-LO, 1.0 μg/ml x 1 h, 5 days after exposure) was 54%. For the same compound, the cytotoxicity at 1 µg/mL ([5]; read-out: Taxol toxicity, SK-N-LO, 1.0 μg/ml x 4 h, 5 days after exposure) was 58%, the cytotoxicity at 1 µg/mL ([5]; read-out: Taxol toxicity, SK-N-LO, 1.0 μg/ml x 24 h, 5 days after exposure) was 57% and the “cytotoxicity compared with a 1 hour exposure” value ([5]; SK-N-LO, 0.01 μg/ml, 24 hour) was “enhanced cytotoxicity”. The toxicity in words ([5]; SK-N-LO, 0.01 μg/ml, 24 hour exposure) was “toxic”, the “resilience of cell line to taxol (least/most resilient)” value ([6]; 0.01-1.0 μg/ml) was “the most” and the cytotoxicity at 0.1 µg/mL ([6]; Homo sapiens, read-out: Taxol toxicity, SK-N-FI, 0.1 μg/ml x 1 h, 5 days after exposure) was 0%. The cytotoxicity at 0.1 µg/mL ([6]; Homo sapiens, read-out: Taxol toxicity, SK-N-FI, 0.1 μg/ml x 4 h, 5 days after exposure) was 0%, the cytotoxicity at 0.1 µg/mL ([6]; Homo sapiens, read-out: Taxol toxicity, SK-N-FI, 0.1 μg/ml x 24 h, 5 days after exposure, p < 0.05 vs 1 h) was 14% and the cytotoxicity at 1 µg/mL ([6]; Homo sapiens, read-out: Taxol toxicity, SK-N-FI, 1.0 μg/ml x 1 h, 5 days after exposure) was 0%. For the same compound, the cytotoxicity at 1 µg/mL ([6]; Homo sapiens, read-out: Taxol toxicity, SK-N-FI, 1.0 μg/ml x 4 h, 5 days after exposure) was 58%, the cytotoxicity at 1 µg/mL ([6]; Homo sapiens, read-out: Taxol toxicity, SK-N-FI, 1.0 μg/ml x 24 h, 5 days after exposure, p < 0.05 vs 1 h) was 76% and the minimal effective concentration ([6]; Homo sapiens, read-out: concentration at which cell line was affected) was at least 0.1 µg/mL. The cytotoxicity at 0.1 µg/mL ([7]; read-out: Taxol toxicity, VA-N-BR, 0.1 μg/ml x 1 h, 5 days after exposure) was 61%, the cytotoxicity at 0.1 µg/mL ([7]; read-out: Taxol toxicity, VA-N-BR, 0.1 μg/ml x 4 h, 5 days after exposure) was 66% and the cytotoxicity at 0.1 µg/mL ([7]; read-out: Taxol toxicity, VA-N-BR, 0.1 μg/ml x 24 h, 5 days after exposure) was 68%. It also gave a cytotoxicity at 1 µg/mL ([7]; read-out: Taxol toxicity, VA-N-BR, 1.0 μg/ml x 1 h, 5 days after exposure) of 87%, a cytotoxicity at 1 µg/mL ([7]; read-out: Taxol toxicity, VA-N-BR, 1.0 μg/ml x 4 h, 5 days after exposure) of 84% and a cytotoxicity at 1 µg/mL ([7]; read-out: Taxol toxicity, VA-N-BR, 1.0 μg/ml x 24 h, 5 days after exposure) of 83%. It also gave a minimal effective concentration [7, 12] of at least 0.1 µg/mL, a cytotoxicity at 0.1 µg/mL ([8]; read-out: Taxol toxicity, VA-MG-SL, 0.1 μg/ml x 1 h, 5 days after exposure) of 58% and a cytotoxicity at 0.1 µg/mL ([8]; read-out: Taxol toxicity, VA-MG-SL, 0.1 μg/ml x 4 h, 5 days after exposure) of 56%. It also gave a cytotoxicity at 0.1 µg/mL ([8]; read-out: Taxol toxicity, VA-MG-SL, 0.1 μg/ml x 24 h, 5 days after exposure) of 58%, a cytotoxicity at 1 µg/mL ([8]; read-out: Taxol toxicity, VA-MG-SL, 1.0 μg/ml x 1 h, 5 days after exposure) of 87% and a cytotoxicity at 1 µg/mL ([8]; read-out: Taxol toxicity, VA-MG-SL, 1.0 μg/ml x 4 h, 5 days after exposure) of 90%. The cytotoxicity at 1 µg/mL ([8]; read-out: Taxol toxicity, VA-MG-SL, 1.0 μg/ml x 24 h, 5 days after exposure) was 86%, the minimal effective concentration [8, 12] was at least 0.1 µg/mL and the cytotoxicity at 0.1 µg/mL ([9]; read-out: Taxol toxicity, U-373-MG, 0.1 μg/ml x 1 h, 5 days after exposure) was 46%. For the same compound, the cytotoxicity at 0.1 µg/mL ([9]; read-out: Taxol toxicity, U-373-MG, 0.1 μg/ml x 4 h, 5 days after exposure) was 56%, the cytotoxicity at 0.1 µg/mL ([9]; read-out: Taxol toxicity, U-373-MG, 0.1 μg/ml x 24 h, 5 days after exposure) was 57% and the cytotoxicity at 1 µg/mL ([9]; read-out: Taxol toxicity, U-373-MG, 1.0 μg/ml x 1 h, 5 days after exposure) was 74%. The cytotoxicity at 1 µg/mL ([9]; read-out: Taxol toxicity, U-373-MG, 1.0 μg/ml x 4 h, 5 days after exposure) was 79%, the cytotoxicity at 1 µg/mL ([9]; read-out: Taxol toxicity, U-373-MG, 1.0 μg/ml x 24 h, 5 days after exposure) was 79% and the minimal effective concentration [9, 12] was at least 0.1 µg/mL. For the same compound, the “time of abnormal mitosis and polyploidy” value (SK-N-AS cells [10]) was 36 to 72 h, the time of apoptosis (SK-N-AS cells [10]) was 6 to 24 h and the “cells altered by taxol” value (SK-N-AS cells [10]; at 24, 48 and 72 hours) was “Approximately 30%”.

Source: patent publication US5696153A, “Therapeutic regimen for treating patients” (priority 1996, dated 1997)
